target: T1, His-PKC-theta (Homo sapiens, UniProt Q04759); test: PKC-theta Assay (384-well time resolved fluorescence, IMAP TR-FRET); type: biochemical; settings: Table 2; read-out: Act. Level (IC50 in the PKC-theta Assay)
T1 construct: His; purchased Invitrogen
Procedure: PKC-theta Assay. A 384-well time resolved fluorescence assay was used to monitor PKC-theta activity. The PKC-theta assay was run in the following assay buffer: 50 mM HEPES pH 7.6, 10 mM MgCl2, 1 mM DTT, 0.01% Triton X-100, 0.01% BSA and 0.1 mM EDTA. To initiate the reaction, 200 nM of Fam-labeled S6-derived peptide (Molecular Devices) and 10 μM of ATP were mixed with 142 pM of His-PKC-theta (Invitrogen) for a total assay volume of 25 μL in each well. The assay was incubated at room temperature for 2 hours and terminated using a 60 μL/well mixture of Detection Binding Solution: 70% IMAP Progressive Binding Buffer A, 30% IMAP Progressive Binding Buffer B, 1:600 Progressive Binding Reagent, and 1:400 TR-FRET Tb Donor (Molecular Devices). The assay plates were then incubated overnight at room temperature and read on a Perkin-Elmer Envision Reader.

T1 sequence (Q04759 whole entry): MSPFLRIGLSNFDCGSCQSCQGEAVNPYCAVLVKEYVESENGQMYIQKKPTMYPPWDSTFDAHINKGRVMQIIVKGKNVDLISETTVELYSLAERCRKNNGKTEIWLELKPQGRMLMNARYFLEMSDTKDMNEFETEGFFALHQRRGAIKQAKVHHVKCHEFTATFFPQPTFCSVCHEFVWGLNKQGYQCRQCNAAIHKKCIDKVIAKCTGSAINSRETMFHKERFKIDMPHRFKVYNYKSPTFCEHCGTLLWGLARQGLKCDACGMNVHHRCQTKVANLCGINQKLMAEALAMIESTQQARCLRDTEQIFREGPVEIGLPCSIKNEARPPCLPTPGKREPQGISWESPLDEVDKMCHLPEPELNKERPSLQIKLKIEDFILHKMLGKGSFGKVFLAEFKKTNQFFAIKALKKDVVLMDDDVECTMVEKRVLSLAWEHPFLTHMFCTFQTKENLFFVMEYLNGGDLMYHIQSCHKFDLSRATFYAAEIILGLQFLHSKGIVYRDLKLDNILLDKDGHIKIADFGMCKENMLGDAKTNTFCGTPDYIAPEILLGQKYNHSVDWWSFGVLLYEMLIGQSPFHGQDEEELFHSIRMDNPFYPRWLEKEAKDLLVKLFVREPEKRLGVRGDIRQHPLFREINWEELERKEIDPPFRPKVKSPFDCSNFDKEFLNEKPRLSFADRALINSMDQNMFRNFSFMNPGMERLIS

IC50, 2000 to 10000 nM:
Cc1nnnn1-c1ccccc1CNc1ncc(C#N)c(N[C@@H]2CC[C@@H](O)C(C)(C)C2)n1 [Cmpd 18]
Cc1ccccc1CNc1ncc(C#N)c(N[C@H]2CC[C@@H](O)CC2)n1 [Cmpd 19]
N#Cc1cnc(NCc2ccc(F)cc2F)nc1N[C@H]1CC[C@@H](O)CC1 [Cmpd 20]
N#Cc1cnc(NCc2ccccc2-n2cccn2)nc1N[C@H]1CC[C@@H](O)CC1 [Cmpd 21]
COc1cccc(F)c1CNc1ncc(C#N)c(N[C@H]2CC[C@@H](O)CC2)n1 [Cmpd 22]
CCOc1cccc(F)c1CNc1ncc(C#N)c(N[C@H]2CC[C@@H](O)CC2)n1 [Cmpd 23]
Cc1nnnn1-c1ccccc1CNc1ncc(C(F)(F)F)c(N[C@H]2CC[C@@H](O)C(C)(C)C2)n1 [Cmpd 24]
Cc1nnnn1-c1ccccc1CNc1ncc(C#N)c(N[C@H]2CC[C@@H](O)C(C)(C)C2)n1 [Cmpd 25]
CN1CCN(c2ccccc2CNc2ncc(C#N)c(N[C@H]3CC[C@@H](O)CC3)n2)CC1 [Cmpd 27]
N#Cc1cnc(NCc2ccccc2)nc1N[C@H]1CC[C@@H](O)CC1 [Cmpd 28]
COc1ccc(C(CNc2ncc(C#N)c(N[C@@H]3CC[C@H](O)C(C)(C)C3)n2)N2CCOCC2)cc1 (stereo partly shown) [Cmpd 39]
CC(C)(CNc1ncc(C#N)c(N[C@@H]2C[C@H](O)C2(C)C)n1)c1cccc(Cl)c1 [Cmpd 40]

IC50, 800 to 2000 nM:
N#Cc1cnc(NCc2ccccc2Oc2ccc(F)cc2)nc1N[C@H]1CC[C@@H](O)CC1 [Cmpd 12]
N#Cc1cnc(NCc2ccccc2N2CCOCC2)nc1N[C@H]1CC[C@@H](O)CC1 [Cmpd 13]
N#Cc1cnc(NCc2ccccc2OC(F)(F)F)nc1N[C@H]1CC[C@@H](O)CC1 [Cmpd 17]
C[C@@H](CNc1ncc(C#N)c(N[C@@H]2C[C@H](O)C2(C)C)n1)c1ccccc1 [Cmpd 41]

IC50, < 100 nM:
Cc1nnnn1-c1ccccc1CNc1ncc(C#N)c(NC2CCC(O)C(C)(C)C2)n1 (stereo not shown) [Cmpd 1]
Cc1nnnn1-c1ccccc1CNc1ncc(C(F)(F)F)c(NC2CCC(O)C(C)(C)C2)n1 (stereo not shown) [Cmpd 2]
N#Cc1cnc(NCc2cc(F)ccc2C(F)(F)F)nc1N[C@H]1CC[C@@H](O)CC1 [Cmpd 3]
CC1(C)C[C@H](Nc2nc(NCCc3ccc(O)cc3)ncc2C#N)CC[C@@H]1O [Cmpd 29]
COc1cccc(CCNc2ncc(C#N)c(N[C@@H]3CC[C@H](O)C(C)(C)C3)n2)c1 [Cmpd 31]
CC1(C)C[C@H](Nc2nc(NCCc3cccc(Cl)c3)ncc2C#N)CC[C@@H]1O [Cmpd 32]
Cc1ccc(CCNc2ncc(C#N)c(N[C@@H]3CC[C@H](O)C(C)(C)C3)n2)cc1C [Cmpd 35]

IC50, 100 to 800 nM:
N#Cc1cnc(NCc2ccccc2OC(F)F)nc1N[C@H]1CC[C@@H](O)CC1 [Cmpd 4]
CC(C)Oc1ccccc1CNc1ncc(C#N)c(N[C@H]2CC[C@@H](O)CC2)n1 [Cmpd 5]
CC(C)(O)CNc1nc(NCc2cnccc2C(F)(F)F)ncc1C#N [Cmpd 6]
Cc1c(CO)cccc1Nc1nc(NCc2cnccc2C(F)(F)F)ncc1C#N [Cmpd 7]
N#Cc1cnc(NCc2ccccc2C(F)(F)F)nc1N[C@H]1CC[C@@H](O)CC1 [Cmpd 8]
N#Cc1cnc(NCc2ccccc2Cl)nc1N[C@H]1CC[C@@H](O)CC1 [Cmpd 9]
N#Cc1cnc(NCc2ccccc2-c2ccccc2)nc1N[C@H]1CC[C@@H](O)CC1 [Cmpd 10]
CC(C)(CO)Nc1nc(NCc2cnccc2C(F)(F)F)ncc1C#N [Cmpd 15]
N#Cc1cnc(NCc2c(F)cccc2Cl)nc1N[C@H]1CC[C@@H](O)CC1 [Cmpd 16]
COc1ccccc1CCNc1ncc(C#N)c(N[C@@H]2CC[C@H](O)C(C)(C)C2)n1 [Cmpd 30]
CC1(C)C[C@H](Nc2nc(NCCc3ccc(Cl)cc3)ncc2C#N)CC[C@@H]1O [Cmpd 33]
CCc1ccc(CCNc2ncc(C#N)c(N[C@@H]3CC[C@H](O)C(C)(C)C3)n2)cc1 [Cmpd 34]
COc1ccc(CCNc2ncc(C#N)c(N[C@@H]3CC[C@H](O)C(C)(C)C3)n2)cc1OC [Cmpd 36]
CC1(C)C[C@H](Nc2nc(NCCc3ccc(C#N)cc3)ncc2C#N)CC[C@@H]1O [Cmpd 37]
CC1(C)[C@@H](O)C[C@H]1Nc1nc(NCCc2ccc(C#N)cc2)ncc1C#N [Cmpd 38]
C[C@H](CNc1ncc(C#N)c(N[C@@H]2C[C@H](O)C2(C)C)n1)c1ccccc1 [Cmpd 42]
CC1(C)[C@@H](O)C[C@H]1Nc1nc(NCC(F)(F)c2ccccc2)ncc1C#N [Cmpd 43]
CC1(C)[C@@H](O)C[C@H]1Nc1nc(NCCc2ccccc2C(F)(F)F)ncc1C#N [Cmpd 44]

same assay, conditions: read-out: Act. Level (IC50 in the PKC-theta Assay)

IC50, < 100 nM:
CC(C)(F)c1ncncc1CNc1ncc(C(F)(F)F)c(N[C@@H]2C[C@H](O)C2(C)C)n1 [Cmpd 1]
CC1(C)[C@@H](O)C[C@H]1Nc1nc(NCc2cncnc2OCCC(F)(F)F)ncc1C(F)(F)F [Cmpd 2]
COC1CC(Nc2nc(NCc3cnccc3C(F)(F)F)ncc2C(F)(F)F)C1(C)C (stereo not shown) [Cmpd 3]
CC1(C)[C@@H](O)C[C@H]1Nc1nc(NCc2cncnc2OCCC(F)(F)F)ncc1C#N [Cmpd 4]
CC1(C)C[C@H](Nc2nc(NCc3cncnc3OCCC(F)(F)F)ncc2C#N)CC[C@@H]1O [Cmpd 6]
CC1(C)[C@@H](O)C[C@H]1Nc1nc(NCc2cncnc2OCC(F)F)ncc1C(F)(F)F [Cmpd 7]
CC1(C)C[C@H](Nc2nc(NCc3cncnc3OCCC(F)(F)F)ncc2C(F)(F)F)CC[C@@H]1O [Cmpd 8]
CC(C)(F)c1ncncc1CNc1ncc(C#N)c(N[C@@H]2CC[C@H](O)C(C)(C)C2)n1 [Cmpd 10]
CC(F)(F)COc1ncncc1CNc1ncc(C(F)(F)F)c(N[C@@H]2C[C@H](O)C2(C)C)n1 [Cmpd 13]
CC(C)(F)c1ncncc1CNc1ncc(C#N)c(N[C@@H]2C[C@H](CO)C2(C)C)n1 [Cmpd 15]
CC(F)(F)COc1ncncc1CNc1ncc(C#N)c(N[C@@H]2C[C@H](O)C2(C)C)n1 [Cmpd 16]
CNC(=O)[C@H]1CC[C@@H](Nc2nc(NCc3cnccc3C(F)(F)F)ncc2C(F)(F)F)CC1 [Cmpd 17]
CC1(C)C[C@H](Nc2nc(NCc3cnccc3C(F)(F)F)ncc2C(F)(F)F)CC[C@@H]1O [Cmpd 18]
Cc1ccc(Oc2ncncc2CNc2ncc(C(F)(F)F)c(N[C@H]3CC[C@@H](O)CC3)n2)cc1 [Cmpd 19]
CC(C)c1ncncc1CNc1ncc(C(F)(F)F)c(N[C@@H]2C[C@H](O)C2(C)C)n1 [Cmpd 20]
CC1(C)C[C@H](Nc2nc(NCc3cncnc3OCCF)ncc2C#N)CC[C@@H]1O [Cmpd 21]
CNC(=O)[C@H]1CC[C@@H](Nc2nc(NCc3cncnc3Oc3cccc(C)c3)ncc2C#N)CC1 [Cmpd 22]
CC1(C)[C@@H](O)C[C@H]1Nc1nc(NCc2cnccc2C(F)(F)F)ncc1C(F)(F)F [Cmpd 24]
CCOc1ncncc1CNc1ncc(C(F)(F)F)c(N[C@@H]2CC[C@H](O)C(C)(C)C2)n1 [Cmpd 25]
Cc1ccc(Oc2ncncc2CNc2ncc(C#N)c(N[C@H]3CC[C@@H](O)CC3)n2)cc1 [Cmpd 26]
Cc1ccc(Oc2ncncc2CNc2ncc(C#N)c(N[C@H]3CC[C@@](C)(O)CC3)n2)cc1 [Cmpd 28]
CC(F)(F)COc1ncncc1CNc1ncc(C(F)(F)F)c(N[C@@H]2CC[C@H](O)C(C)(C)C2)n1 [Cmpd 29]
CC1(C)C[C@H](Nc2nc(NCc3cncnc3C(F)(F)F)ncc2C(F)(F)F)CC[C@@H]1O [Cmpd 30]
Cc1ccc(Oc2ncncc2CNc2ncc(C(F)(F)F)c(N[C@H]3CC[C@@](C)(O)CC3)n2)cc1 [Cmpd 31]
CC1(C)[C@@H](CO)C[C@H]1Nc1nc(NCc2cnccc2C(F)(F)F)ncc1C(F)(F)F [Cmpd 32]
CC1(C)[C@H](O)C[C@H]1Nc1nc(NCc2cnccc2C(F)(F)F)ncc1C(F)(F)F [Cmpd 33]
CC1(C)C[C@H](Nc2nc(NCc3cncnc3OCC(F)F)ncc2C#N)CC[C@@H]1O [Cmpd 34]
CC(C)c1ncncc1CNc1ncc(C#N)c(N[C@@H]2C[C@H](O)C2(C)C)n1 [Cmpd 35]
CC(F)(F)c1ncncc1CNc1ncc(C#N)c(N[C@@H]2CC[C@H](O)C(C)(C)C2)n1 [Cmpd 36]
CCOc1ncncc1CNc1ncc(C#N)c(N[C@@H]2CC[C@H](O)C(C)(C)C2)n1 [Cmpd 37]
Cc1cccc(Oc2ncncc2CNc2ncc(C#N)c(N[C@H]3CC[C@@](C)(O)CC3)n2)c1 [Cmpd 38]
CC1(C)C[C@H](Nc2nc(NCc3c[n+]([O-])ccc3C(F)(F)F)ncc2C(F)(F)F)CC[C@@H]1O [Cmpd 40]
CC1(C)[C@@H](O)C[C@H]1Nc1nc(NCc2c[n+]([O-])ccc2C(F)(F)F)ncc1C(F)(F)F [Cmpd 41]
CC1(C)C[C@H](Nc2nc(NCc3c[n+]([O-])ccc3C(F)(F)F)ncc2C#N)CC[C@@H]1O [Cmpd 42]
CC1(C)C[C@H](Nc2nc(NCc3cncnc3C(F)(F)F)ncc2C#N)CC[C@@H]1O [Cmpd 43]

Source: patent US9783505B2, “Substituted diaminopyrimidyl compounds, compositions thereof, and methods of treatment therewith” (Signal Pharmaceuticals, LLC, priority 2013, dated 2017)
